Common to all, as to assay: NCI-60 cell line screen, 48 h
For assay [1], the system named is 786-0.
The test system of assay [2] is A498.
Assay [3] concerns ACHN.
Assay [4] concerns CCRF-CEM.
Assay [5] has as its system HOP-62.
The subject of assay [6] is HT-29.
Assay [7] has as its system K562.
The test system of assay [8] is MDA-MB-231.
The subject of assay [9] is MDA-MB-435.
For assay [10], the system named is MDA-N.
Assay [11] concerns Malme-3M.
Assay [12] deals with NCI-H23.
Assay [13] relates to NCI-H460.
Assay [14] relates to NCI-H522.
For assay [15], the system named is OVCAR-5.
Assay [16] concerns SF-539.
Assay [17] concerns SW-620.
The subject of assay [18] is T47D.
Assay [19] deals with U-251.
The test system of assay [20] is UACC-257.

Molecules are shown by their SMILES.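 Values below derive from 48-hour exposures of cells grown in 96-well plates, with endpoints linearly interpolated between the two concentrations bracketing the appropriate inhibition level. GI50 is the concentration that inhibits growth by half.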 Activity calls are given as the source filed them. No stated cut-off is given here; in the data, active = GI50 up to about 1.1 µM and inactive = higher. Bounds are passed on as bounds.

In the case of `CC(=O)Oc1c(C)c2c(c3ccccc13)OC(C)(C)C2`, the GI50 in assay [1] is 15.3 µM (inactive); in [2] it was 20.9 µM (inactive); in assay [3] it was 17.3 µM (inactive); in assay [4] it was 24.7 µM (inactive); in assay [5], 20.1 µM (inactive); in [6] it was 18.1 µM (inactive). Besides, the GI50 in assay [7] was 29.2 µM (inactive); in [8], 23.9 µM (inactive); in assay [9], 17.2 µM (inactive); in assay [10], 12 µM (inactive); in [11], 16.3 µM (inactive); in assay [12], 14 µM (inactive). The GI50 in assay [13] is 19.2 µM (inactive); in assay [14] it was 18.4 µM (inactive); in assay [15], 19.5 µM (inactive); in [16], 20.4 µM (inactive); in assay [17] it was 19.8 µM (inactive); in assay [18] it was 20.3 µM (inactive). The GI50 was 18.6 µM (inactive) in assay [19] and 12.2 µM (inactive) in [20].

As for `COC1/C=C/C(C)C(C(C)C(OC)C(C)CCC(=O)C(C)C(CCC(=O)O)OC)OC(=O)/C=C/C=C(\C)CC(OC)CC2=CC(=O)O[C@@H](C(C)C(OC)CC(OC)/C=C/C(C)C(OC)C1)[C@H]2O` (stereo not given in full), the GI50 in assay [1] was 0.578 µM (active); in assay [2] it was 0.123 µM (active); in assay [3] it was 0.74 µM (active); in [4], 0.181 µM (active); in assay [5] it was 0.631 µM (active); in assay [6] it was 0.284 µM (active). The GI50 in [7] is 1.92 µM (inactive); in assay [8] it was 0.483 µM (active); in [9] it was 0.748 µM (active); in [10] it was 0.6 µM (active); in [11], 0.592 µM (active); in assay [12] it was 1.61 µM (inactive). Also, the GI50 in assay [13] is 0.43 µM (active); in assay [14], 1.37 µM (inactive); in assay [15], > 5 µM (inactive); in assay [16] it was 0.292 µM (active); in assay [17], 0.607 µM (active); in assay [18], 2.56 µM (inactive). The GI50 is 0.249 µM (active) in assay [19] and 1.24 µM (inactive) in [20].

Turning to `c1ccc(-c2c3c(nc4c2CC[C@H]4NC2=NCCN2)[C@@H](NC2=NCCN2)CC3)cc1`, the GI50 in [1], in [2], in assay [3], in assay [4], in assay [5] and in assay [6] was > 100 µM (inactive) each time. The GI50 in [7], in assay [8], in assay [9], in assay [10], in assay [11] and in [12] was > 100 µM (inactive) each time. Besides, the GI50 in assay [13] is 29.2 µM (inactive); in [14] it was > 100 µM (inactive); in [15], > 100 µM (inactive); in assay [16] it was 27.4 µM (inactive); in [17], > 100 µM (inactive); in [18], > 100 µM (inactive). The results for the GI50 in [19] and in assay [20] were 9.31 µM (inactive) and > 90.6 µM (inactive), respectively.

Turning to `COc1ccc2c(c1)CCCN2S(=O)(=O)c1ccccc1[N+](=O)[O-]`, the GI50 in [1] is 58.5 µM (inactive); in assay [2] it was 33.4 µM (inactive); in assay [3] it was 41.1 µM (inactive); in assay [4], 33.7 µM (inactive); in [5] it was 47.5 µM (inactive); in assay [6], 21.4 µM (inactive). The GI50 was 5.89 µM (inactive) in assay [7]; 53.5 µM (inactive) in assay [8]; 2.99 µM (inactive) in assay [9]; 3.73 µM (inactive) in assay [10]; 40.8 µM (inactive) in [11]; 46.2 µM (inactive) in assay [12]. Besides, the GI50 in assay [13] is 26 µM (inactive); in assay [14], 26.7 µM (inactive); in assay [15] it was 84.3 µM (inactive); in assay [16], 27.7 µM (inactive); in [17] it was 17.4 µM (inactive); in [18] it was 48.2 µM (inactive). Moreover, the GI50 is 24.3 µM (inactive) in [19] and 71.9 µM (inactive) in assay [20].
